Results reported in patent EP4603105A1, “PHARMACEUTICAL COMPOSITION CONTAINING CYCLIC COMPOUND HAVING SELECTIVE KRAS INHIBITORY EFFECT AGAINST HRAS AND NRAS” (CHUGAI SEIYAKU KABUSHIKI KAISHA, priority 2022, dated 2024).

What was measured:
HRAS wild-type protein = HRAS wild-type protein (Homo sapiens, UniProt P01112); test: Binding to HRAS by surface plasmon resonance (SPR), KD and KD ratio to KRAS; conditions: ratio of KD for HRAS wild-type protein to KD for KRAS
Method in brief: (§1)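 Compound binding is evaluated by SPR single-cycle kinetics, with concentrations added intermittently from low to high for 75 s each. Target surfaces carry GDP-loaded biotinylated Avi-RAS at about 100–300 RU, regenerated after each cycle; temperature 30°C. A 1:1 binding model gives KD.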

[1] = biological target: GDP-bound NRAS wild-type protein (Homo sapiens, UniProt P01111); test: Binding to NRAS by surface plasmon resonance (SPR), KD and KD ratio to KRAS; conditions: ratio of KD for GDP-bound NRAS wild-type protein to KD for KRAS
Method in brief: as §1

[2] = biological target: GDP-bound KRAS wild-type protein (Homo sapiens, UniProt P01116); test: Binding to KRAS by surface plasmon resonance (SPR), dissociation constant KD; conditions: Single Cycle Kinetics
Method in brief: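 Biotinylated GDP-bound RAS was captured at about 100–300 RU. Running buffer: HBS pH 7.4, 10 mM MgCl2, 10 µM GDP, 1 mM DTT, 0.01% Tween 20, 4% DMSO.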

[3] = tested on: human lung cancer strain NCI-H441; test: NCI-H441 cell proliferation inhibitory activity (CellTiter-Glo, 4 days); format: cell-based; conditions: NCI-H441 cells, 4 days, read-out: NCl-H441 IC50
Method in brief: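 Proliferation was scored by […] measured after the reagent was added to cultures kept at 37°C in 5% carbon dioxide.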

Chain of HRAS wild-type protein (P01112 whole entry): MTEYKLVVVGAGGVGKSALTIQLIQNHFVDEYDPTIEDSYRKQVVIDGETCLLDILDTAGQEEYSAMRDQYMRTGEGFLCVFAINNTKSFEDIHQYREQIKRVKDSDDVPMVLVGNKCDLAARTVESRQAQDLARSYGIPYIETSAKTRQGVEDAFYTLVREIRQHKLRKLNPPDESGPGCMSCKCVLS
Chain of GDP-bound NRAS wild-type protein (P01111 whole entry): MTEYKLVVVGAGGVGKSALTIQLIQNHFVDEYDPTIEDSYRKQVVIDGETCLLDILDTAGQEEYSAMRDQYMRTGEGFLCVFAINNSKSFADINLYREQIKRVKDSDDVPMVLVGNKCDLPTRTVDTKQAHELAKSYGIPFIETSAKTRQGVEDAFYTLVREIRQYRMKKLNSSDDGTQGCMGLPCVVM
Chain of GDP-bound KRAS wild-type protein (P01116 1-188 isoform P01116-2): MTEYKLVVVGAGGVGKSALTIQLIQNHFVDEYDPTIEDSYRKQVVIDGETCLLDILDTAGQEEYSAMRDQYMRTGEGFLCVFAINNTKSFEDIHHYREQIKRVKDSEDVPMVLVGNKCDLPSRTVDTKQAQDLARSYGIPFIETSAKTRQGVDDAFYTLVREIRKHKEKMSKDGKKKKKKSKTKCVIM

Structure (SMILES) | HRAS /KRAS (HRAS wild-type protein) | NRAS /KRAS [1] | Kd [2] [nM] | IC50 [3] [nM]
CCC[C@H]1C(=O)N[C@@H](C2CCCC2)C(=O)N(C)CC(=O)N(C)[C@H]2C/C=C\CCN(C2=O)[C@@H](Cc2ccc(C)cc2)C(=O)N(C)CC(=O)N[C@@H](CCc2ccc(C(F)(F)F)c(Cl)c2)C(=O)N2CC3(CC3)C[C@H]2C(=O)NC2(CCC2)C(=O)N(C)[C@@H](C2CCCC2)C(=O)N(C)[C@H](C(=O)N(C)C)CC(=O)N1C [PP3444] | A (a compound having 10 or more and less than 20 is denoted as A) | AA (a compound having 20 or more is denoted as AA) | 0.19 | 13.6
CCO[C@@H]1C[C@H]2C(=O)NC3(CC(C)(C)C3)C(=O)N(C)[C@@H](C3CCCC3)C(=O)N(C)[C@H](C(=O)N(C)C)CC(=O)N[C@@H](CC(C)C)C(=O)N[C@@H]([C@@H](C)CC)C(=O)N(C)CC(=O)N(C)[C@H]3C/C=C\CCN(C3=O)[C@@H](Cc3ccc(C(F)(F)F)cc3)C(=O)N(C)CC(=O)N[C@@H](CCc3ccc(C(F)(F)F)c(OC)c3)C(=O)N2C1 [PP3445] | A (a compound having 10 or more and less than 20 is denoted as A) | A (a compound having 10 or more and less than 20 is denoted as A) | 0.13 | 20.2
CCCC[C@@H]1NC(=O)C[C@@H](C(=O)N(C)C)N(C)C(=O)[C@H](C2CCCC2)N(C)C(=O)C2(CC(C)(C)C2)NC(=O)[C@@H]2C[C@@H](OCC)CN2C(=O)[C@H](CCc2ccc(C(F)(F)F)c(OC)c2)NC(=O)CN(C)C(=O)[C@H](Cc2ccc(C(F)(F)F)cc2)N2CC/C=C\C[C@@H](C2=O)N(C)C(=O)CN(C)C(=O)[C@H]([C@@H](C)CC)NC1=O [PP3446] | A (a compound having 10 or more and less than 20 is denoted as A) | A (a compound having 10 or more and less than 20 is denoted as A) | 0.2 | 21.3
CCC[C@@H]1NC(=O)C[C@@H](C(=O)N(C)C)N(C)C(=O)[C@H](C2CCCC2)N(C)C(=O)C2(CC(C)(C)C2)NC(=O)[C@@H]2C[C@@H](OCC)CN2C(=O)[C@H](CCc2ccc(C(F)(F)F)c(OC)c2)NC(=O)CN(C)C(=O)[C@H](Cc2ccc(C(F)(F)F)cc2)N2CC/C=C\C[C@@H](C2=O)N(C)C(=O)CN(C)C(=O)[C@H]([C@@H](C)CC)NC1=O [PP3447] | A (a compound having 10 or more and less than 20 is denoted as A) | A (a compound having 10 or more and less than 20 is denoted as A) | 0.16 | 19.1
CCO[C@@H]1C[C@H]2C(=O)NC3(CC(C)(C)C3)C(=O)N(C)[C@@H](C3CCCC3)C(=O)N(C)[C@H](C(=O)N(C)C)CC(=O)N[C@@H](CC3CC3)C(=O)N[C@@H]([C@@H](C)CC)C(=O)N(C)CC(=O)N(C)[C@H]3C/C=C\CCN(C3=O)[C@@H](Cc3ccc(C(F)(F)F)cc3)C(=O)N(C)CC(=O)N[C@@H](CCc3ccc(C(F)(F)F)c(OC)c3)C(=O)N2C1 [PP3448] | A (a compound having 10 or more and less than 20 is denoted as A) | A (a compound having 10 or more and less than 20 is denoted as A) | 0.2 | 18.4
CCCOC[C@@H]1NC(=O)C[C@@H](C(=O)N(C)CCC)N(C)C(=O)[C@H](C2CCCC2)N(C)C(=O)C2(CC(C)(C)C2)NC(=O)[C@@H]2C[C@@H](OCC)CN2C(=O)[C@H](CCc2ccc(C(F)(F)F)c(OC)c2)NC(=O)CN(C)C(=O)[C@H](Cc2ccc(C(F)(F)F)cc2)N2CC/C=C\C[C@@H](C2=O)N(C)C(=O)CN(C)C(=O)[C@H]([C@@H](C)CC)NC1=O [PP3449] | A (a compound having 10 or more and less than 20 is denoted as A) | A (a compound having 10 or more and less than 20 is denoted as A) | 0.25 | 31.9
CCCOC[C@@H]1NC(=O)C[C@@H](C(=O)N(C)CCC)N(C)C(=O)[C@H](C2CCCC2)N(C)C(=O)C2(CC(C)(C)C2)NC(=O)[C@@H]2C[C@@H](OCC)CN2C(=O)[C@H](CCc2ccc(C(F)(F)F)c(Cl)c2)NC(=O)CN(C)C(=O)[C@H](Cc2ccc(C(F)(F)F)cc2)N2CC/C=C\C[C@@H](C2=O)N(C)C(=O)CN(C)C(=O)[C@H]([C@@H](C)CC)NC1=O [PP3450] | A (a compound having 10 or more and less than 20 is denoted as A) | A (a compound having 10 or more and less than 20 is denoted as A) | 0.51 | 43.3
CCCOC[C@@H]1NC(=O)C[C@@H](C(=O)N(C)CCC)N(C)C(=O)[C@H](C2CCCC2)N(C)C(=O)C2(CC(C)(C)C2)NC(=O)[C@@H]2C[C@@H](OCC)CN2C(=O)[C@H](CCc2cc(F)c(C(F)(F)F)c(F)c2)NC(=O)CN(C)C(=O)[C@H](Cc2ccc(C(F)(F)F)cc2)N2CC/C=C\C[C@@H](C2=O)N(C)C(=O)CN(C)C(=O)[C@H]([C@@H](C)CC)NC1=O [PP3451] | A (a compound having 10 or more and less than 20 is denoted as A) | A (a compound having 10 or more and less than 20 is denoted as A) | 0.35 | 26.2
CCO[C@@H]1C[C@H]2C(=O)NC3(CC(C)(C)C3)C(=O)N(C)[C@@H](C3CCCC3)C(=O)N(C)[C@H](C(=O)N(C)C)CC(=O)N[C@@H](CC(C)C)C(=O)N[C@@H]([C@@H](C)CC)C(=O)N(C)CC(=O)N(C)[C@H]3C/C=C\CCN(C3=O)[C@@H](Cc3ccc(C(F)(F)F)cc3)C(=O)N(C)CC(=O)N[C@@H](CCc3ccc(C(F)(F)F)c(Cl)c3)C(=O)N2C1 [PP3452] | A (a compound having 10 or more and less than 20 is denoted as A) | A (a compound having 10 or more and less than 20 is denoted as A) | 0.19 | 14.5
CCCC[C@@H]1NC(=O)C[C@@H](C(=O)N(C)C)N(C)C(=O)[C@H](C2CCCC2)N(C)C(=O)C2(CC(C)(C)C2)NC(=O)[C@@H]2C[C@@H](OCC)CN2C(=O)[C@H](CCc2ccc(C(F)(F)F)c(Cl)c2)NC(=O)CN(C)C(=O)[C@H](Cc2ccc(C(F)(F)F)cc2)N2CC/C=C\C[C@@H](C2=O)N(C)C(=O)CN(C)C(=O)[C@H]([C@@H](C)CC)NC1=O [PP3453] | A (a compound having 10 or more and less than 20 is denoted as A) | A (a compound having 10 or more and less than 20 is denoted as A) | 0.34 | 19.4
CCC[C@@H]1NC(=O)C[C@@H](C(=O)N(C)C)N(C)C(=O)[C@H](C2CCCC2)N(C)C(=O)C2(CC(C)(C)C2)NC(=O)[C@@H]2C[C@@H](OCC)CN2C(=O)[C@H](CCc2ccc(C(F)(F)F)c(Cl)c2)NC(=O)CN(C)C(=O)[C@H](Cc2ccc(C(F)(F)F)cc2)N2CC/C=C\C[C@@H](C2=O)N(C)C(=O)CN(C)C(=O)[C@H]([C@@H](C)CC)NC1=O [PP3454] | A (a compound having 10 or more and less than 20 is denoted as A) | A (a compound having 10 or more and less than 20 is denoted as A) | 0.3 | 26.2
CCO[C@@H]1C[C@H]2C(=O)NC3(CC(C)(C)C3)C(=O)N(C)[C@@H](C3CCCC3)C(=O)N(C)[C@H](C(=O)N(C)C)CC(=O)N[C@@H](CC(C)C)C(=O)N[C@@H]([C@@H](C)CC)C(=O)N(C)CC(=O)N(C)[C@H]3C/C=C\CCN(C3=O)[C@@H](Cc3ccc(C(F)(F)F)cc3)C(=O)N(C)CC(=O)N[C@@H](CCc3cc(F)c(C(F)(F)F)c(F)c3)C(=O)N2C1 [PP3455] | A (a compound having 10 or more and less than 20 is denoted as A) | A (a compound having 10 or more and less than 20 is denoted as A) | 0.11 | 15
CCCC[C@@H]1NC(=O)C[C@@H](C(=O)N(C)C)N(C)C(=O)[C@H](C2CCCC2)N(C)C(=O)C2(CC(C)(C)C2)NC(=O)[C@@H]2C[C@@H](OCC)CN2C(=O)[C@H](CCc2cc(F)c(C(F)(F)F)c(F)c2)NC(=O)CN(C)C(=O)[C@H](Cc2ccc(C(F)(F)F)cc2)N2CC/C=C\C[C@@H](C2=O)N(C)C(=O)CN(C)C(=O)[C@H]([C@@H](C)CC)NC1=O [PP3456] | A (a compound having 10 or more and less than 20 is denoted as A) | A (a compound having 10 or more and less than 20 is denoted as A) | 0.2 | 16.4
CCC[C@@H]1NC(=O)C[C@@H](C(=O)N(C)C)N(C)C(=O)[C@H](C2CCCC2)N(C)C(=O)C2(CC(C)(C)C2)NC(=O)[C@@H]2C[C@@H](OCC)CN2C(=O)[C@H](CCc2cc(F)c(C(F)(F)F)c(F)c2)NC(=O)CN(C)C(=O)[C@H](Cc2ccc(C(F)(F)F)cc2)N2CC/C=C\C[C@@H](C2=O)N(C)C(=O)CN(C)C(=O)[C@H]([C@@H](C)CC)NC1=O [PP3457] | A (a compound having 10 or more and less than 20 is denoted as A) | AA (a compound having 20 or more is denoted as AA) | 0.16 | 13.2
